Source: US8809627B2, “Plant isoflavone and isoflavanone O-methyltransferase genes” (The Samuel Roberts Noble Foundation, Inc., priority 2006, dated 2014)

How the values were obtained:
MtIOMT7 = assay: OMT assays with purified recombinant MtIOMT7 (relative activity; HPLC/MS of products); format: biochemical, Medicago truncatula; settings: for Relative activity, MtIOMT7: 50 μM S-adenosyl methionine, 100 μM acceptor substrate, most converted substrate = 100%
Excerpt: (§1) Cloning of MtIOMT5 (corresponding to TC 100926, TIGR MtGI v.8) was as described previously (Liu et al., 2005). To obtain a full-length cDNA for MtIOMT2, specific primers designed based upon the M. truncatula genomic sequence were used to amplify the MtIOMT2 coding sequence from M. truncatula root cDNA. The amplified product was cloned into the pGEM®-T easy vector (Promega, Madison Wis.) and sequenced to confirm its identity. MtIOMTs were cloned into the pET28a vector (EMD Biosciences, Inc., San Diego, Calif.) using PCR-based amplification with primers designed to introduce EcoRI and XhoI restriction sites; BamHI and XhoI sites were used for cloning MtIOMT6 due to the presence of an internal EcoRI site in this particular cDNA. Because the EST for MtIOMT8 was missing a start codon, the primer designed to clone MtIOMT8 into pET28a contained an additional 2-nucleotide insertion to generate an ATG start site. All MtIOMTs were expressed as translational fusions to an N-terminal His-tag. Expression of MtIOMTs in E. coli BL21(DE3) and purification by Ni^2+-NTA chromatography were as described (Zubieta et al., 2001). Proteins were dialyzed against 20 mM Tris pH 8.0, 100 mM NaCl, 10% (v/v) glycerol, and 14 mM β-mercaptoethanol. Protein concentration was determined by Bradford assay using BSA as a standard (Bradford, 1976).
(§2) Reactions (200 μl) were performed in 0.1 M potassium phosphate, pH 7.4, 10% (w/v) sucrose, 14 mM β-mercaptoethanol with 10 μM protein, 0.5 mM S-adenosyl-L-methionine, and 80 μM phenolic substrates. All substrates were purchased from Indofine (Hillsborough, N.J.) except 6,7-dihydroxy-4′-methoxyisoflavone, dihydrodaidzein, and vestitol, which were purchased from Apin (Oxfordshire, UK). […] OMT assays were incubated at 30° C. for 2 h and extracted with ethyl acetate. Ethyl acetate extracts were dried under N2 and the resultant material was resuspended in 50-100 μl of methanol. Samples were analyzed on an Agilent 1100 HPLC, equipped with a quaternary pump (model #G1311A), a degasser (model #G1322A), an autosampler (model #G1313A), and a diode array detector (model #G1315A). Samples of 20 μl were applied to an ODS2 reverse-phase column (5 μm particle size, 4.6×250 mm) and eluted in 1% (v/v) phosphoric acid with an increasing gradient of acetonitrile (0-5 min, 25%; 5-35 min, 25-50%; 35-39 min, 50-100%) at a flow rate of 1 ml/min. To resolve the 4′-O-methylated and 7-O-methylated products of genistein, samples were applied to a Phenomenex SYNERGI Polar-RP 80 Å column (4 μm particle size, 4.6×250 mm) and eluted in water with an increasing gradient of acetonitrile (0-5 min, 20%; 5-17 min, 20-38%; 17-33 min, 38%; 33-45 min, 38-56%; 45-46 min, 56-100%) at a flow rate of 1 ml/min. Chiral chromatography was performed as described (Liu et al., 2005).
(§3) For determination of specific activities, reactions (100 μl) were performed in 0.1 M potassium phosphate, pH 7.4, 10% (w/v) sucrose, 14 mM β-mercaptoethanol with 0.2-μg protein, 50 μM S-adenosyl-L-methionine (0.025 μCi ^14C-SAM per reaction), and 100 μM substrate. Reactions were incubated at 30° C. for 15-25 min and stopped by addition of 4 μl of 1N HCl. Products were extracted into 500 μl of ethyl acetate and 400 μl was used for liquid scintillation counting.
An HP 1100 series II LC system (Hewlett-Packard, Palo Alto, Calif.) with a photodiode array detector was coupled to a Bruker Esquire ion-trap mass spectrometer (ITMS) equipped with an electrospray ionization source. A reverse phase, C18, 5 μm, 4.6×250 mm column (J. T. Baker, Phillipsburg, N.J.) was used for separations. The mobile phase consisted of 0.1% (v/v) acetic acid using linear gradients of 5-90% acetonitrile (v/v) in 70 min. The flow rate was 0.8 ml/min, and the temperature of the column was kept at 28° C. Both positive- and negative-ion mass spectra were acquired.

MtIOMT1 = assay: OMT assays with purified recombinant MtIOMT1 (relative activity with 14C-SAM); format: biochemical, Medicago truncatula; settings: for Relative activity, MtIOMT1: 50 μM S-adenosyl methionine, 100 μM acceptor substrate, most converted substrate = 100%
Excerpt: as §1, with “1976). […]” for “1976).”
as §3

MsI7OMT = molecular target: T1, MsI7OMT (Medicago sativa, UniProt O24529); assay: OMT assays with purified recombinant MsI7OMT (relative activity); format: biochemical; settings: 50 μM S-adenosyl methionine, 100 μM acceptor substrate; most converted substrate = 100%
T1 sequence (O24529 1-352): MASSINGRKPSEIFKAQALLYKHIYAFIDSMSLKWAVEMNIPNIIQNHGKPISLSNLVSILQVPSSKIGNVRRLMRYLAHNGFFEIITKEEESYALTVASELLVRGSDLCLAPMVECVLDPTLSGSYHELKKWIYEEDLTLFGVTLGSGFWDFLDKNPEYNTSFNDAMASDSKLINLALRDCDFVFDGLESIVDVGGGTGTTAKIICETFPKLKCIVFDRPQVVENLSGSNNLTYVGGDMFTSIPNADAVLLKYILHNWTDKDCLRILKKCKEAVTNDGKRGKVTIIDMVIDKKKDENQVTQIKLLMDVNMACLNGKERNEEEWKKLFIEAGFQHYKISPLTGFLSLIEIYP
Excerpt: as §1, §2, §3

SMILES	Relative activity, MtIOMT7 (MtIOMT7)	Relative activity, MtIOMT1 (MtIOMT1)	Relative activity, MsI7OMT (MsI7OMT)	Fold reduction of activity compared with 6,7,4′-trihydroxyisoflavone (MtIOMT1; MtIOMT1, methylation of the 4′-hydroxyl group)	Fold by which relative initial activity with glycitein is higher than with this substrate (MtIOMT1; MtIOMT1, saturating concentration of glycitein) [fold]	Amount of substrate methylated after 2 h (MtIOMT7; MtIOMT7, 2 h)
O=c1c(-c2ccc(O)cc2)coc2cc(O)c(O)cc12 [6,7,4′-trihydroxyisoflavone]	0%	43.9%	51.8%	–	–	–
COc1ccc(-c2coc3cc(O)c(O)cc3c2=O)cc1 [6,7-dihydroxy,4′-methoxyisoflavone]	0%	≦1%	≦1%	more than 80 fold	–	–
O=c1c(-c2ccc(O)c(O)c2)coc2cc(O)ccc12 [7,3′,4′-trihydroxyisoflavone]	≦1%	40.8%	47.1%	–	–	–
O=c1cc(-c2ccc(O)cc2)oc2cc(O)ccc12 [7,4′-dihydroxyflavone]	0%	0%	0%	–	–	–
O=c1cc(-c2ccc(O)cc2)oc2cc(O)cc(O)c12 [Apigenin]	0%	0%	0%	–	–	–
O=c1oc2cc(O)ccc2c2oc3cc(O)ccc3c12 [Coumestrol]	1.5%	0%	0%	–	–	–
O=c1c(-c2ccc(O)cc2)coc2cc(O)ccc12 [Daidzein]	0%	20.6%	21.6%	–	5	–
O=C1c2ccc(O)cc2OCC1c1ccc(O)cc1 (stereo not drawn) [Dihydrodaidzein]	84.1%	15.6%	12.8%	–	–	–
O=c1c(-c2ccc(O)cc2)coc2cc(O)cc(O)c12 [Genistein]	0%	49.2%	15%	–	–	–
COc1cc2c(=O)c(-c3ccc(O)cc3)coc2cc1O [Glycitein]	≦1%	100%	100%	–	–	–
O=c1c(O)c(-c2cc(O)c(O)c(O)c2)oc2cc(O)cc(O)c12 [Myricetin]	0%	0%	0%	–	–	–
O=C1C[C@@H](c2ccc(O)cc2)Oc2cc(O)cc(O)c21 [Naringenin]	100%	0%	0%	–	–	Almost all
COc1ccc(C2COc3cc(O)ccc3C2)c(O)c1 (stereo not drawn) [Vestitol]	3.4%	0%	0%	–	–	–
